In patent US20250380697A1, “ISOXAZOLINE DERIVATIVE COMPOUND AND INSECTICIDAL COMPOSITION COMPRISING SAME” (KYUNG NONG CORPORATION, priority 2022, published 2025):

Key:
Type in all cases: in vivo
Plutella xylostella = assay: Pesticidal activity against Plutella xylostella, leaf-dipping method; conditions: 48 h, read-out: larvae mortality rate against Plutella xylostella
Description: Cabbage (Daiya) leaves were cut into pieces with a diameter of 5.8 cm, dipped in each of the pesticide compositions prepared in Examples (a 5% acetone solution in which each of the compounds of Synthesis Examples (concentration: 100 ppm) was diluted) for 30 seconds, and sufficiently shade-dried. Then, the shade-dried cabbage leaves were placed in a petri dish (8.8 cm in diameter) covered with a filter paper and repeatedly inoculated 3 times with third instar larvae of Plutella xylostella, 10 larvae per inoculation. In particular, Plutella xylostella larvae used were those which were collected in a place near Gyeongju (Korea) in 2000 and bred in a breeding room for multiple generations. Then, the Plutella xylostella larvae were stored under the conditions of 16 hours of light and 8 hours of dark, 25±1° C., and relative humidity of 50-60%, and the number of live Plutella xylostella larvae was counted 48 hours after the inoculation. Thereafter, the larvae mortality rate was calculated by correcting the density after treatment based on the density before treatment, as shown in Equation 1 and Equation 2 below, and converting the same into the corrected mortality rate for untreated (Reference: A method of computing the effectiveness of an insecticide. J. Econ. Entomol. 18:265˜267. Abbott, 1925).

[1] = test system: Frankliniella occidentalis; assay: Pesticidal activity against Frankliniella occidentalis, spray method; conditions: 48 h, read-out: mortality rate against Frankliniella occidentalis
Excerpt: A water-soaked filter paper (9.0 cm in diameter) was placed in an insect breeding dish (Lab Guide®) with a diameter of 9.0 cm and a height of 4.0 cm, and then parafilm (width 4.0 cm×height 4.0 cm) was placed thereon. Before treating with a pesticide composition, 10 adult Frankliniella occidentalis were inoculated per petri dish using a No. 4 brush. In this case, Frankliniella occidentalis adults used were those purchased from the Bio Utilization Institute (Andong, Korea). Then, each of the pesticide compositions prepared in Examples (a diluted solution in which each of the compounds of Synthesis Examples (concentration: 100 ppm) was diluted; the solvent=distilled water+acetone 50,000 mg/L+Triton X-100 100 mg/L) was loaded into a 100 mL small sprayer, and sprayed 10-12 times at a distance of 30 cm and a height of 50 cm, and one cotyledons of soybean, which is a host plant, were added one at a time. Then, the Frankliniella occidentalis adults were stored under the conditions of 16 hours of light and 8 hours of darkness, 25±1° C., and relative humidity of 50-60%, and the number of live Frankliniella occidentalis adults was counted 48 hours after the inoculation. Thereafter, the larvae mortality rate was calculated in the same manner as in Test Example 1 above.

Spodoptera litura = assay: Pesticidal activity against Spodoptera litura, leaf-dipping method; conditions: 48 h, read-out: mortality rate against Spodoptera litura
Description: Cabbage (Daiya) leaves were cut into pieces with a diameter of 5.8 cm, dipped in each of the pesticide compositions prepared in Examples (a 5% acetone solution in which each of the compounds of Synthesis Examples (concentration: 100 ppm) was diluted) for 30 seconds, and sufficiently shade-dried. Then, the shade-dried cabbage leaves were placed in a petri dish (8.8 cm in diameter) covered with a filter paper and repeatedly inoculated 3 times with the second instar larvae of Spodoptera litura, 10 larvae per inoculation. In this case, Spodoptera litura larvae used were those which were purchased from the Bio Utilization Institute (Andong, Korea). Then, the Spodoptera litura larvae were stored under the conditions of 16 hours of light and 8 hours of dark, 25±1° C., and relative humidity of 50-60%, and the number of live Spodoptera litura larvae was counted 48 hours after the inoculation. Thereafter, the larvae mortality rate was calculated in the same manner as in Test Example 1 above.

Measured: mortality at 100 ppm

Cc1cc(C2=NOC(c3cc(Cl)cc(Cl)c3)(C(F)(F)F)C2)ccc1C(=O)NC(=O)c1cn(C)nc1C(F)(F)F (stereo not drawn) [Synthesis Example 47]
≥ 80%: all assays above

Cc1cc(C2=NOC(c3cc(Cl)cc(Cl)c3)(C(F)(F)F)C2)ccc1C(=O)NC(=O)C1(F)CC1 (stereo not drawn) [Synthesis Example 49]
≥ 80%: all assays above

Cc1cc(C2=NOC(c3cc(Cl)cc(Cl)c3)(C(F)(F)F)C2)ccc1C(=O)NC(=O)C1CC1(F)F (stereo not drawn) [Synthesis Example 50]
≥ 80%: all assays above

Cc1cc(C2=NOC(c3cc(Cl)cc(Cl)c3)(C(F)(F)F)C2)ccc1C(=O)NC(=O)C1CC12CCC2 (stereo not drawn) [Synthesis Example 52]
≥ 80%: all assays above

Cc1cc(C2=NOC(c3cc(Cl)cc(Cl)c3)(C(F)(F)F)C2)ccc1C(=O)NC(=O)C1CC1C1CC1 (stereo not drawn) [Synthesis Example 53]
≥ 80%: all assays above

Cc1cc(C2=NOC(c3cc(Cl)cc(Cl)c3)(C(F)(F)F)C2)ccc1C(=O)NC(=O)CC1CC1 (stereo not drawn) [Synthesis Example 55]
≥ 80%: all assays above

Cc1cc(C(=O)NC(=O)c2ccc(C3=NOC(c4cc(Cl)cc(Cl)c4)(C(F)(F)F)C3)cc2C)c(C)o1 (stereo not drawn) [Synthesis Example 56]
≥ 80%: all assays above

Cc1cc(C(=O)NC(=O)c2ccc(C3=NOC(c4cc(Cl)cc(C(F)(F)F)c4)(C(F)(F)F)C3)cc2C)c(C)o1 (stereo not drawn) [Synthesis Example 57]
≥ 80%: all assays above

Cc1cc(C2=NOC(c3cc(Cl)cc(Cl)c3)(C(F)(F)F)C2)ccc1C(=O)NC(=O)c1ccco1 (stereo not drawn) [Synthesis Example 58]
≥ 80%: all assays above

Cc1cc(C2=NOC(c3cc(Cl)cc(C(F)(F)F)c3)(C(F)(F)F)C2)ccc1C(=O)NC(=O)c1ccco1 (stereo not drawn) [Synthesis Example 59]
≥ 80%: all assays above

Cc1cc(C2=NOC(c3cc(Cl)cc(C(F)(F)F)c3)(C(F)(F)F)C2)ccc1C(=O)NC(=O)C1CCOCC1 (stereo not drawn) [Synthesis Example 65]
≥ 80%: all assays above

Cc1cc(C2=NOC(c3cc(Cl)cc(Cl)c3)(C(F)(F)F)C2)ccc1C(=O)NC(=O)N1CCCCC1 (stereo not drawn) [Synthesis Example 66]
≥ 80%: all assays above

Cc1cc(C2=NOC(c3cc(Cl)cc(C(F)(F)F)c3)(C(F)(F)F)C2)ccc1C(=O)NC(=O)N1CCCCC1 (stereo not drawn) [Synthesis Example 67]
≥ 80%: all assays above

Cc1cc(C2=NOC(c3cc(Cl)cc(Cl)c3)(C(F)(F)F)C2)ccc1C(=O)NC(=O)C1CCCC1 (stereo not drawn) [Synthesis Example 68]
≥ 80%: all assays above

Cc1cc(C2=NOC(c3cc(Cl)cc(C(F)(F)F)c3)(C(F)(F)F)C2)ccc1C(=O)NC(=O)C1CCCC1 (stereo not drawn) [Synthesis Example 69]
≥ 80%: all assays above

CC(C)=CC(=O)NC(=O)c1ccc(C2=NOC(c3cc(Cl)cc(C(F)(F)F)c3)(C(F)(F)F)C2)cc1C (stereo not drawn) [Synthesis Example 70]
≥ 80%: all assays above

C/C=C/C(=O)NC(=O)c1ccc(C2=NOC(c3cc(Cl)cc(C(F)(F)F)c3)(C(F)(F)F)C2)cc1C (stereo not drawn) [Synthesis Example 71]
≥ 80%: all assays above

C/C=C/C=C/C(=O)NC(=O)c1ccc(C2=NOC(c3cc(Cl)cc(C(F)(F)F)c3)(C(F)(F)F)C2)cc1C (stereo not drawn) [Synthesis Example 72]
≥ 80%: all assays above

Cc1cc(C2=NOC(c3cc(Cl)cc(C(F)(F)F)c3)(C(F)(F)F)C2)ccc1C(=O)NC(=O)CC1CC1 (stereo not drawn) [Synthesis Example 75]
≥ 80%: all assays above

Cc1cc(C2=NOC(c3cc(Cl)cc(C(F)(F)F)c3)(C(F)(F)F)C2)ccc1C(=O)NC(=O)c1ccc(C#N)cc1 (stereo not drawn) [Synthesis Example 76]
≥ 80%: all assays above

Cc1cc(C2=NOC(c3cc(Cl)cc(C(F)(F)F)c3)(C(F)(F)F)C2)ccc1C(=O)NC(=O)c1nccs1 (stereo not drawn) [Synthesis Example 78]
≥ 80%: all assays above

Cc1cc(C2=NOC(c3cc(Cl)cc(Cl)c3)(C(F)(F)F)C2)ccc1C(=O)NC(=O)c1nccs1 (stereo not drawn) [Synthesis Example 79]
≥ 80%: all assays above

Cc1cc(C(=O)NC(=O)c2ccc(C3=NOC(c4cc(Cl)cc(Cl)c4)(C(F)(F)F)C3)cc2C)no1 (stereo not drawn) [Synthesis Example 80]
≥ 80%: all assays above

Cc1cc(C2=NOC(c3cc(Cl)cc(Cl)c3)(C(F)(F)F)C2)ccc1C(=O)NC(=O)c1ccno1 (stereo not drawn) [Synthesis Example 81]
≥ 80%: all assays above

Cc1cc(C(=O)NC(=O)c2ccc(C3=NOC(c4cc(Cl)cc(C(F)(F)F)c4)(C(F)(F)F)C3)cc2C)no1 (stereo not drawn) [Synthesis Example 82]
≥ 80%: all assays above

Cc1cc(C2=NOC(c3cc(Cl)cc(C(F)(F)F)c3)(C(F)(F)F)C2)ccc1C(=O)NC(=O)c1ccno1 (stereo not drawn) [Synthesis Example 83]
≥ 80%: all assays above

Cc1cc(C2=NOC(c3cc(Cl)cc(C(F)(F)F)c3)(C(F)(F)F)C2)ccc1C(=O)NC(=O)c1cc(C2CC2)on1 (stereo not drawn) [Synthesis Example 84]
≥ 80%: all assays above

Cc1cc(C2=NOC(c3cc(Cl)cc(C(F)(F)F)c3)(C(F)(F)F)C2)ccc1C(=O)NC(=O)C1CCCO1 (stereo not drawn) [Synthesis Example 85]
≥ 80%: all assays above
